{"source": "patent US12629356B2", "about": "“Expansion of tumor infiltrating lymphocytes with potassium channel agonists and therapeutic uses thereof” (Iovance Biotherapeutics, Inc., priority 2017, dated 2026)", "key": {"[1]": {"test_system": "normal donor PBMC lines and TIL lines from melanoma tumors", "experiment": "Kinetic expression of KCa3.1 after activation with anti-CD3 and anti-CD28 with or without SKA-31 (flow cytometry)", "type": "cell-based, human", "settings": "50 nM SKA-31; PBMCs and melanoma TILs stimulated with anti-CD3 and anti-CD28; day 1, 3 and 7", "description": "To study kinetic expression of KCa3.1, wo normal donor PBMC lines and three TIL lines from melanoma tumors were activated with anti-CD3 and anti-CD28 with the KCa3.1 agonist SKA-31 (Formula (2)). PBMCs and TILs at day 0 (baseline) were used as controls for KCa3.1 expression. Normal donor PBMCs and three TIL lines (M004, M10^11, and M1023) were thawed and cultured in TIL culture media (TIL CM) containing RPMI 1640 (Thermo Fisher Scientific, Waltham, MA, USA), 1 mM Glutamax (Thermo Fisher Scientific), 1 mM pyruvate (Thermo Fisher Scientific), 50 μM 2-mercaptoethanol (Thermo Fisher Scientific), and 1× Pen-Strep (Thermo Fisher Scientific), and 10% human AB serum (Gemini Bio-Products, West Sacramento, CA, USA) with IL-2 (6000 IU/mL) (CellGenix Inc., Portsmouth, NH, USA). On the next day, PBMCs were activated with anti-CD3 (Clone CLB-T3/4.E, Cell Sciences) ([…]) and anti-CD28 (Clone 28.2, BioLegend, San Diego, CA, USA) (500 ng/mL) with or without 50 nM SKA-31 (Sigma-Aldrich Co., St. Louis, MO, USA). […] Cells were harvested on day 1, 3, and 7 following activation, stained with anti-CD3 (clone SP34-2, BD Biosciences), anti-CD8 (clone RPA-T8, BioLegend), anti-KCa3.1 (Polyclonal, Alomone Lab), and AmCyan (Thermo Fisher Scientific), and analyzed by flow cytometry using a BD FACS CANTO II system."}, "Melanoma TIL lines [2]": {"test_system": "Melanoma TIL lines", "experiment": "Fold expansion of melanoma TIL lines in 14-day REP with or without SKA-31", "type": "cell-based, human", "settings": "ten melanoma TIL lines; 50 mM SKA-31 (so in the source); day 14 of REP; p=0.002", "description": "(§1) Melanoma TIL lines were propagated using a REP protocol for 14 days with or without the KCa3.1 agonist SKA-31 (Formula (2)). Ten TIL lines (M004, M10^11, M1017, M1020, M1021, M1025, M1030, M1034, M1036, and M1045) were propagated with REP with anti-CD3 OKT-3 antibody (Miltenyi Biotech) (30 ng/mL) using irradiated PBMC feeder cells at ratio of TILs to feeder cells of 1 to 100 in G-REX 24 well plates (Wilson Wolf Manufacturing). Approximately 1×10^6 TILs were used per G-REX 24 well on day 0 in 8 mL of TIL REP media (TIL CM and Aim V media (Thermo Fisher Scientific) at a 1 to 1 ratio) with or without 50 mM of SKA-31. On day 2, the cultures were supplemented with IL-2 (6000 IU/mL). Half of the media was replaced with fresh AIMV media on day 5 with or without 50 mM SKA-31. The REP cultures were supplemented with IL-2 (3000 IU/mL) on day 9 and 12 respectively. On day 14, TTLs were counted and calculated for fold expansion."}, "Melanoma TIL lines [3]": {"test_system": "Melanoma TIL lines", "experiment": "Phenotyping of melanoma TILs (CD27, CD28) at end of REP with or without SKA-31", "type": "cell-based, human", "settings": "ten melanoma TIL lines, end of 14-day REP, vs TILs without SKA-31", "description": "as §1\nTen melanoma TIL lines were expanded with the REP protocol for 14 days with or without the KCa3.1 agonist SKA-31 (Formula (2)) as in Example 2. At the end of each REP, TILs were harvested and phenotyped with anti-CD3 (clone SP34-2, BD Biosciences), anti-CD28 (clone CD28.2, BD biosciences), and anti-CD27 (M-T271, BD Biosciences) antibodies."}, "[4]": {"test_system": "pre-REP TILs from tumor fragments", "experiment": "CCR7+ and CD25+ expression in pre-REP TILs grown with IL-2 alone or IL-2 with SKA-31 (flow cytometry)", "type": "cell-based", "settings": "vs no treatment", "description": "Three tumors (kidney, estrogen receptor positive (ER^+) breast, and melanoma) were grown with either IL-2 alone or IL-2 with SKA-31 […] to evaluate the performance of a KCa3.1 agonist in the pre-REP stage. The resected tumor samples were cut into 3-5 mm^2 fragments. Four to eight tumor fragments were placed into GREX-10 flask containing TIL CM (previously described) with IL-2 (6000 IU/mL) with or without 100 nM SKA-31. The culture was supplemented with IL-2 every 5 days until harvested. After three weeks, TIL was collected, counted, and stained with anti-CD8 (clone RPA-T8, BioLegend), anti-CD4 (OKT-4, BioLegend), anti-CCR7 (BioLegend G043H7), or AmCyan (Thermo Fisher Scientific), and analyzed by flow cytometry using a BD FACS CANTO II system. The results of CCR7 expression in the three tumor fragments are presented in FIG. 13, with representative flow cytometry results for one of the tumors presented in FIG. 14.\nFurther evidence that SKA-31 enhances expression of CD25 and CCR7 was also obtained. Pre-REP TIL were grown with either IL-2 (6000 IU/mL) alone or with SKA-31 and were analyzed after 21 days (n=14; tumor types: breast cancer (8), melanoma (3), kidney (2), ovarian (1)). CCR7^+ expression was assessed by flow cytometry in CD4^+ (FIG. 15, top) and CD8^+subsets (FIG. 15, bottom). CD25^+expression was assessed by flow cytometry in CD4^+(FIG. 17, top) and CD8′ subsets (FIG. 17, bottom) (n=16, breast cancer (8), melanoma (3), kidney (3), ovarian (2)). In both cases, p values represent the difference between no treatment and SKA-31 using student's unpaired T test, and p values<0.05 are considered as statistically significant."}, "[5]": {"test_system": "pre-REP TILs from ovarian and breast cancer tumor fragments", "experiment": "Absolute cell counts of pre-REP TILs from ovarian and breast tumor fragments with or without SKA-31", "type": "cell-based", "settings": "50 nM SKA-31 with IL-2, three weeks, vs IL-2 alone", "description": "Tumor fragments from ovarian and breast cancer (triple positive, ER^+/PR^+/HER2^+) tumors were grown in a pre-REP stage with either IL-2 alone or IL-2 with SKA-31 (Formula (2)) at a concentration of 50 nM. The resected tumor samples were cut into 3-5 mm^2 fragments. Four to eight tumor fragments were placed into GREX-10 flasks containing TIL CM (previously described) with IL-2 (6000 IU/mL). The culture was supplemented with IL-2 every 5 days until harvested. After three weeks, TILs were collected, counted, and stained with anti-CD8 antibody (clone RPA-T8, BioLegend), anti-CD4 antibody (OKT-4, BioLegend), anti-CD3 antibody (clone SP34-2, BD Biosciences), and AmCyan (Thermo Fisher Scientific), and analyzed by flow cytometry using a BD FACS CANTO II system."}, "[6]": {"test_system": "TILs co-cultured with melanoma tumor cells", "experiment": "IFN-γ release (ELISA) from TILs prepared with and without SKA-31 co-cultured with melanoma tumor cells", "type": "cell-based", "settings": "24 hours co-culture, 3:1 E:T ratio, vs TILs prepared without SKA-31", "description": "FIG. 21 illustrates the results of IFN-γ release as measured by enzyme-linked immunosorbent assay (ELISA). TILs prepared with and without SKA-31 were co-cultured with melanoma tumor cells for 24 hours at a TIL:melanoma cell ratio of 3:1 (i.e., a 3:1 effector:target or E:T ratio). Blocking of the TCR MHC-I was performed using 80 μg/mL of antibody clone W6/32 (BioLegend)."}, "melanoma cells": {"test_system": "melanoma cells", "experiment": "Tumor cell killing by TILs prepared with and without SKA-31 (caspase-3 marker)", "type": "cell-based", "settings": "different E:T ratios"}, "[7]": {"settings": "breast (ER+/PR+/HER2+) tumor fragments"}}}
{"compound": "Nc1nc2c(ccc3ccccc32)s1", "note": "[SKA-31, naphtho[1,2-d]thiazol-2-ylamine]", "values": [{"measurement": "KCa3.1 expression", "setting": "[1]", "value": "did not alter KCa3.1 expression"}, {"measurement": "expansion of TILs in REP relative to control without KCa3.1 agonist", "setting": "Melanoma TIL lines [2]", "value": 1.42, "unit": "fold"}, {"measurement": "CD8+CD27+CD28+ T cell subset", "setting": "Melanoma TIL lines [3]; p=0.002", "value": "greater expansion"}, {"measurement": "CD8+CD27+ T cell subset", "setting": "Melanoma TIL lines [3]; p=0.04", "value": "greater expansion"}, {"measurement": "CD8+CD28+ T cell subset", "setting": "Melanoma TIL lines [3]; p=0.04", "value": "greater expansion"}, {"measurement": "CCR7+ expression in CD4+ and CD8+ subsets", "setting": "[4]; pre-REP TIL, IL-2 6000 IU/mL with SKA-31, 21 days, n=14 tumors", "value": "enhances"}, {"measurement": "CD25+ expression in CD4+ and CD8+ subsets", "setting": "[4]; pre-REP TIL, IL-2 6000 IU/mL with SKA-31, 21 days, n=16 tumors", "value": "enhances"}, {"measurement": "CCR7+ expression in CD4+ and CD8+ TILs", "setting": "[4]; three tumor fragments (kidney, ER+ breast, melanoma), pre-REP, 100 nM SKA-31 with IL-2, three weeks", "value": "increased"}, {"measurement": "absolute cell counts, CD3^mCD4^m TILs", "setting": "[5]; [7]", "value": "increased"}, {"measurement": "absolute cell counts, CD3^mCD8^m TILs", "setting": "[5]; [7]", "value": "increased"}, {"measurement": "absolute cell counts, CD3^mCD8^m TILs", "setting": "[5]; ovarian tumor fragments", "value": "increased"}, {"measurement": "IFN-γ release", "setting": "[6]; one TIL cell line", "value": "statistically significant increase"}, {"measurement": "IFN-γ release", "setting": "[6]; second TIL cell line", "value": "no adverse effect"}, {"measurement": "tumor killing (caspase-3)", "setting": "melanoma cells; M1032 TIL line", "value": "no adverse effects"}, {"measurement": "tumor killing (caspase-3)", "setting": "melanoma cells; M1041 TIL line", "value": "no adverse effects"}]}
